# Source: patent EP2649091B1, “IMMUNE RESTRICTED PEPTIDES WITH INCREASED EFFICACY” (Stichting Het Nederlands Kanker Instituut, priority 2010, dated 2012)
# Values joined by “and” are separate entries in the source; they are usually repeats but may differ in a detail not shown here. Equal entries are not always repeated. am‑phg = not defined here; PRG = not defined here
# Tests used:
# [1] = test system: T cell line specific for LLFGLALIEV; assay: T cell activation, FACS based interferon-gamma production assay, Mage-C2 LLFGLALIEV
# Description: FACS was employed to obtain results.
# T cell activation was quantified using the FACS based interferon-gamma production assay as materials and methods section. Table 10 HLA binding and T cell activation of modified Melanoma-associated protein C2 (pp-qq) epitopes used in vaccination studies.
# [2] = test system: LLFGLALIEV-specific CD8+ T cells; assay: Mouse vaccination study, tetramer analysis of blood, LLFGLALIEV; type: in vivo; conditions: mice vaccinated with 100 µg peptide with IFA and CpG, all times after day one, versus LLFGLALIEV vaccinated mice
# Description: (§1) Three mouse vaccination studies were done using three different wild-type epitopes. In all cases, mice were vaccinated with the peptide supplemented with incomplete freunds ajuvant (IFA) and CpG. Analysis was done by analyzing blood samples with tetramers loaded with wild-type peptide in all cases.
# (§2) This was done for both groups of mice.
# [3] = test system: LLFGLALIEV-specific CD8+ T cells; assay: Mouse vaccination study, LLFGLALIEV tetramer analysis of blood; type: in vivo; conditions: mice vaccinated with 100 µg peptide with IFA and CpG; compared with LLFGLALIEV vaccinated mice, at all times after day one
# Description: as §1, §2
# [4] = target: HLA-A0201 (Homo sapiens, UniProt P04439, D140Y/D185E/D98H/E176V/E277Q/G131W/G231S/I119V/I121R/I166T/I218V/L300P/L318F/N151K/N90K/P208A/P217A/Q86G/Q94H/R138H/R169H/T345S); type: binding
# [5] = test system: HLA-A2::Mart-1(26-35) reactive T cells stimulated by T2 cells; assay: T cell activation time course assay, IFNγ production (FACS), Mart-1 epitope; type: cell-based; conditions: for % CD8+ T cells producing IFN-γ 0H / Geometric mean IFN-γ in arbitrary fluorescence units 0H: time point 0H (basal); for % CD8+ T cells producing IFN-γ 2H / Geometric mean IFN-γ in arbitrary fluorescence units 2H: time point 2H; for % CD8+ T cells producing IFN-γ 4H / Geometric mean IFN-γ in arbitrary fluorescence units 4H: time point 4H; for % CD8+ T cells producing IFN-γ 24H / Geometric mean IFN-γ in arbitrary fluorescence units 24H: time point 24H; for % CD8+ T cells producing IFN-γ 24H / Geometric mean IFN-γ in arbitrary fluorescence units 24H / % CD8+ T cells producing IFN-γ 48H / Geometric mean IFN-γ in arbitrary fluorescence units 48H: free peptide washed away; for % CD8+ T cells producing IFN-γ 48H / Geometric mean IFN-γ in arbitrary fluorescence units 48H: time point 48H
# [6] = test system: […]-specific CD8+ T cells; assay: Mouse vaccination study, tetramer analysis of blood, […]; type: in vivo; conditions: mice vaccinated with 5 µg peptide with IFA and CpG, booster at day 97, several timepoints, versus […] vaccinated mice
# Protocol: as §1
# (§3) Two groups of three mice were vaccinated with 5 µg of either […] or [am-phg][NVA]AGIGILT[PRG]. At day 97, mice were administred a second dose (booster). At several timepoints blood was taken and tested for […]-specific CD8+ T cells using tetramers loaded with […]. This was done for both groups of mice.
# [7] = test system: […]-specific CD8+ T cells; assay: Mouse vaccination study, […] tetramer analysis of blood; type: in vivo; conditions: mice vaccinated with 5 µg peptide with IFA and CpG, booster at day 97; compared with […] vaccinated mice, at all times
# Protocol: as §1, §3
substance,measurement,setting,value
[PHG][2-AOC]FGLALIEV [listing 1 of 2 here],% Positive TCR recognition % TCR,[1],13.7%
same,Geometric mean in arbitrary fluorescence units Geo TCR,[1],108 arbitrary fluorescence units
same,LLFGLALIEV-specific CD8+ T cells (specific T cell numbers),[2],higher
[PHG][2-AOC]FGLALIEV [listing 2 of 2 here],LLFGLALIEV-specific CD8+ T cells in blood,[3],specific T cell numbers were higher
[am-phg][NVA]AGIGILT[PRG],% inhibition at T=4H and T=24H FP 4h,[4],67%
same,% inhibition at T=4H and T=24H FP 24h,[4],64%
same,IC50 Ratio,[4],8.3 and 8
same,% CD8+ T cells producing IFN-γ 0H,[5]; peptide 0.5 pM,0%
same,Geometric mean IFN-γ in arbitrary fluorescence units 0H,[5]; peptide 0.5 pM,141 arbitrary fluorescence units
same,% CD8+ T cells producing IFN-γ 2H,[5]; peptide 0.5 pM,25%
same,Geometric mean IFN-γ in arbitrary fluorescence units 2H,[5]; peptide 0.5 pM,197 arbitrary fluorescence units
same,% CD8+ T cells producing IFN-γ 4H,[5]; peptide 0.5 pM,30%
same,Geometric mean IFN-γ in arbitrary fluorescence units 4H,[5]; peptide 0.5 pM,342 arbitrary fluorescence units
same,% CD8+ T cells producing IFN-γ 24H,[5]; peptide 0.5 pM,16%
same,Geometric mean IFN-γ in arbitrary fluorescence units 24H,[5]; peptide 0.5 pM,165 arbitrary fluorescence units
same,% CD8+ T cells producing IFN-γ 48H,[5]; peptide 0.5 pM,3%
same,Geometric mean IFN-γ in arbitrary fluorescence units 48H,[5]; peptide 0.5 pM,105 arbitrary fluorescence units
same,% CD8+ T cells producing IFN-γ 0H,[5]; peptide 50 pM,0%
same,Geometric mean IFN-γ in arbitrary fluorescence units 0H,[5]; peptide 50 pM,110 arbitrary fluorescence units
same,% CD8+ T cells producing IFN-γ 2H,[5]; peptide 50 pM,28%
same,Geometric mean IFN-γ in arbitrary fluorescence units 2H,[5]; peptide 50 pM,252 arbitrary fluorescence units
same,% CD8+ T cells producing IFN-γ 4H,[5]; peptide 50 pM,32%
same,Geometric mean IFN-γ in arbitrary fluorescence units 4H,[5]; peptide 50 pM,550 arbitrary fluorescence units
same,% CD8+ T cells producing IFN-γ 24H,[5]; peptide 50 pM,28%
same,Geometric mean IFN-γ in arbitrary fluorescence units 24H,[5]; peptide 50 pM,344 arbitrary fluorescence units
same,% CD8+ T cells producing IFN-γ 48H,[5]; peptide 50 pM,18%
same,Geometric mean IFN-γ in arbitrary fluorescence units 48H,[5]; peptide 50 pM,222 arbitrary fluorescence units
same,[…]-specific CD8+ T cells (specific T cell numbers),[6],higher
[am-phg][NVA]AGIGILT[PRG] ({am‑phg-NVA}-AGIGILT-{PRG}; reading uncertain; also: printed as [am-phg][NVA]AGIGILT[PRG]),[…]-specific CD8+ T cells in blood,[7],specific T cell numbers were higher
